Experimental data reported in PMC6616483, “Non-Pungent n-3 Polyunsaturated Fatty Acid (PUFA)-Derived Capsaicin Analogues as Potential Functional Ingredients with Antioxidant and Carbohydrate-Hydrolysing Enzyme Inhibitory Activities” (Antioxidants, 2019).
Where “and” joins values, the source holds several entries; their conditions need not be identical. Identical values can stand only once. Like-named read-outs stand apart in the source and are kept apart here.

What was measured:
[1] = DPPH free radical scavenging assay; conditions: means ± S.D. (n = 3); NA: not active at maximum concentration tested; read-out: DPPH Test IC50
Description: The DPPH assay was performed according to a previously reported protocol. Absorbance was measured at 517 nm using a UV-Vis spectrophotometer (model V-550, Jasco, Milan, Italy). Ascorbic acid was used as positive control.

ABTS assay = conditions: means ± S.D. (n = 3); NA: not active at maximum concentration tested; read-out: ABTS Test IC50
Description: The ABTS assay was performed according to a previously reported protocol. Absorbance was measured at 734 nm using a UV-Vis spectrophotometer (model V-550, Jasco, Milan, Italy) Ascorbic acid was used as positive control.

[2] = Ferric reducing ability power (FRAP) test; conditions: means ± S.D. (n = 3)
Description: The FRAP test was performed following the protocol previously described. Absorbance was measured using a UV-Vis spectrophotometer (model V-550, Jasco, Milan, Italy) at 470 nm. FRAP value was expressed as mM Fe(II)/g. Butylated hydroxytoluene (BHT) was used as a positive control.

β-cells = tested on: β-cells; design: method as in PMID 31022842; conditions: cited from earlier work
[3] = β-Carotene bleaching test
Description: The β-carotene bleaching test was performed as previously described. The absorbance of the samples, standard, and control was measured using a UV-Vis spectrophotometer (model V-550, Jasco, Milan, Italy) at 470 nm against a blank at t = 0 and successively at 30 and 60 min. Propyl gallate was used as positive control.

type 1 diabetic rats = tested on: type 1 diabetic rats; design: method as in PMID 28230360; conditions: orally 6 mg/Kg for 28 days; cited from earlier work
α-glucosidase = test: α-Glucosidase inhibitory assay; assay type: biochemical; conditions: for Ki: calculated following the Cheng–Prusoff equation; for IC50 / α-Glucosidase IC50: means ± S.D. (n = 3)
Description: The α-glucosidase inhibitory assay was achieved following the procedure previously described. Absorbance was measured at 500 nm using a UV-Vis spectrophotometer (model V-550, Jasco, Milan, Italy). […] Ki value was calculated as previously described.

healthy human subjects = tested on: healthy human subjects; design: method as in PMID 16612838; conditions: oral administration; cited from earlier work
α-amylase = biological target: T1, α-amylase (Sus scrofa, UniProt P00690); test: α-Amylase inhibitory assay; assay type: biochemical; conditions: means ± S.D. (n = 3)
T1 sequence (P00690 16-511): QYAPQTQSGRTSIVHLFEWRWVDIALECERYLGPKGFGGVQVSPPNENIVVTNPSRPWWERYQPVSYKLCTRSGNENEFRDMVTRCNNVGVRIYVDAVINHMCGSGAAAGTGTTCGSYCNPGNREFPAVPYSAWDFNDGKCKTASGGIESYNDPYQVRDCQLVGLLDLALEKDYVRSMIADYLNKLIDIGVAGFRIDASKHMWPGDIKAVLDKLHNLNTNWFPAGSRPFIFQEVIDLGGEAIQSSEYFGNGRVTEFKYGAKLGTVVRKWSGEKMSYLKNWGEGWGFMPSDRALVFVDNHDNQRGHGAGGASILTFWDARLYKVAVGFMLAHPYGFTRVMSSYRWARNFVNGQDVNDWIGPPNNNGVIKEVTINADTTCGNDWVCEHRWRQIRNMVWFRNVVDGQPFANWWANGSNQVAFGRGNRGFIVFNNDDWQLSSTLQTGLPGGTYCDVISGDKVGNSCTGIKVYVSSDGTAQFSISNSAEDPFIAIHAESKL
Description: The α-amylase inhibition assay was accomplished as previously described. Absorbance was measured at 540 nm using a UV-Vis spectrophotometer (model V-550, Jasco, Milan, Italy). […] Ki values were calculated following the Cheng–Prusoff equation [18].

[4] = read-out: β-Carotene Bleaching Test IC50 30 min, 30 min of incubation
[5] = read-out: β-Carotene Bleaching Test IC50 60 min, 60 min of incubation

O=C1O[C@H]([C@@H](O)CO)C(O)=C1O [Ascorbic acid]
IC50 [1]: 23 ± 2 µM
IC50 (ABTS assay): 9.6 ± 0.9 µM

Cc1cc(C(C)(C)C)c(O)c(C(C)(C)C)c1 [BHT, Butylated hydroxytoluene]
FRAP Test [2]: 63 ± 4 μM Fe(II)/g

COc1cc(CNC(=O)CCCC/C=C/C(C)C)ccc1O [Capsaicin, capsaicin]
release of insulin compared to the control (β-cells; 15 min of incubation): ineffective
release of insulin compared to the control (β-cells; 120 min of incubation): ineffective
IC50 [3, 4]: 10 ± 1 µM
IC50 [3, 5]: 11 ± 1 µM
intestinal glucose absorption (type 1 diabetic rats): inhibited intestinal glucose absorption
IC50 [1]: 0.6 µM
Ki (α-glucosidase): 1 µM
IC50 (α-glucosidase): 13 ± 1 µM
IC50 (ABTS assay): 0.3 µM
plasma insulin concentrations after glucose loading (healthy human subjects): did not significantly differ from the control group
FRAP Test [2]: 30 ± 3 μM Fe(II)/g

CC/C=C\C/C=C\C/C=C\C/C=C\C/C=C\C/C=C\CCC(=O)O [DHA, docosahexaenoic acid]
release of insulin compared to the control (β-cells; 15 min of incubation): ineffective
release of insulin compared to the control (β-cells; 120 min of incubation): ineffective
IC50 [3, 4]: 70 ± 4 µM
IC50 [3, 5]: 287 ± 10 µM
Ki (α-glucosidase): 10 µM
IC50 (α-glucosidase): 268 ± 9 µM
α-Glucosidase IC50 (α-glucosidase): No significant carbohydrate-hydrolysing enzymes inhibition
α-Amylase IC50 (α-amylase): No significant carbohydrate-hydrolysing enzymes inhibition
FRAP Test [2]: 9 ± 1 μM Fe(II)/g

CC/C=C\C/C=C\C/C=C\C/C=C\C/C=C\C/C=C\CCC(=O)NCc1ccc(O)c(OC)c1 [DHVA, N-docosahexaenoyl vanillylamine]
release of insulin compared to the control (β-cells; 15 min of incubation): ineffective
release of insulin compared to the control (β-cells; 120 min of incubation): slight decrease
IC50 [3, 4]: 46 ± 3 µM
IC50 [3, 5]: 56 ± 3 µM
IC50 [1]: 0.8 µM
Ki (α-glucosidase): 2 µM
IC50 (α-glucosidase): 23.9 µM and 24 µM
IC50 (ABTS assay): 0.3 µM
FRAP Test [2]: 18 ± 2 μM Fe(II)/g

CC/C=C\C/C=C\C/C=C\C/C=C\C/C=C\CCCC(=O)O [EPA, eicosapentaenoic acid]
release of insulin compared to the control (β-cells; 15 min of incubation): ineffective
release of insulin compared to the control (β-cells; 120 min of incubation): ineffective
IC50 [3, 4]: 74 ± 5 µM
IC50 [3, 5]: 310 ± 10 µM
Ki (α-glucosidase): 10 µM
IC50 (α-glucosidase): 250 ± 9 µM
α-Glucosidase IC50 (α-glucosidase): No significant carbohydrate-hydrolysing enzymes inhibition
α-Amylase IC50 (α-amylase): No significant carbohydrate-hydrolysing enzymes inhibition
FRAP Test [2]: 4.8 ± 0.8 μM Fe(II)/g

CC/C=C\C/C=C\C/C=C\C/C=C\C/C=C\CCCC(=O)NCc1ccc(O)c(OC)c1 [EPVA, N-eicosapentaenoyl vanillylamine]
release of insulin compared to the control (β-cells; 15 min of incubation): significant increase
release of insulin compared to the control (β-cells; 120 min of incubation): significant increase
IC50 [3, 4]: 9 ± 1 µM
IC50 [3, 5]: 11 ± 1 µM
IC50 [1]: 1 µM
Ki (α-glucosidase): 2 µM
IC50 (α-glucosidase): 23.6 µM and 24 µM
IC50 (ABTS assay): 0.2 µM
FRAP Test [2]: 28 ± 2 μM Fe(II)/g

CCCOC(=O)c1cc(O)c(O)c(O)c1 [Propyl gallate]
IC50 [3, 4]: 0.4 µM
IC50 [3, 5]: 0.4 µM

COc1cc(COC(=O)CCCC/C=C/C(C)C)ccc1O [capsiate]
intestinal glucose absorption (type 1 diabetic rats): inhibited intestinal glucose absorption
